The target in this assay is T1, BTK (Mus musculus, UniProt P35991).
T1 construct: from tissue; host or cells: mouse blood B cells / splenocytes (CD-1 or BALB/c)
As to the kind of experiment: In vivo degradation of BTK in mouse PD experiments with oral dosing. The method, then:
A method of determining the pharmacodynamic profile of BTK degraders was performed by dosing either CD-1 or BALB/c mice with CTM. The CTM was prepared in a suitable formulation and was administered via oral gavage (PO) at a suitable dose level and frequency as informed by prior pharmacokinetic and tolerability studies. Following administration of CTM, BTK levels in blood or splenocytes are measured using flow cytometry or HTRF. For assessment of BTK levels via flow cytometry, either whole blood or splenocytes were first treated with ACK RBC lysis buffer to facilitate lysing of red blood cells. Remaining cells were then stained with fluorophore-conjugated antibodies against CD45, TCR beta and CD45R (B220). Cell pellets were washed with 1×PBS, fixed, and permeabilized for twenty-four hours with Foxp3/Transcription Factor Fixation/Permeabilization Kit. Cells were then stained intracellularly with unconjugated BTK antibody and detected with a fluorophore-conjugated secondary antibody. Stained cells were run on an Attune N×T Acoustic Focusing Flow Cytometer (Thermo-Fisher A29004), and data was analyzed using FlowJo (v10.5.3) and GraphPad Prism (v7.00) software. Lymphocytes were gated for B cells defined as CD45+ TCR beta−B220+ and T cells as CD45+ TCR beta+B220−. The BTK geometric mean fluorescence intensity (MFI) was calculated for B and T cells. Percent BTK degradation for each compound-treated sample was calculated using the equation described below: % Degradation=100*(Treated sample B cell BTK MFI-treated sample T cell BTK MFI)/Vehicle B cell BTK MFI-Vehicle T cell BTK MFI)
This example evaluates in vivo activity of BTK CTMs via a direct mouse PD measurement following oral dosing
Screens were completed at 90 mg/kg for six hours, and then changed to lower doses/longer time points after seeing strong BTK degradation activity with an initial set of compounds. This assay was useful in selecting compounds for in vivo efficacy experiments.

[1] abbreviates: oral dose 90 mg/kg, 6 h, splenocytes, HTRF.
Where [2] appears, read: oral dose 30 mg/kg, 24 h, blood, flow cytometry.
Setting [3] is: oral dose 1 mg/kg, 6 h, splenocytes, HTRF.
Where [4] appears, read: oral dose 30 mg/kg, 24 h, splenocytes, HTRF.
[5] abbreviates: oral dose 3 mg/kg, 6 h, blood, flow cytometry.

T1 sequence (P35991 whole entry): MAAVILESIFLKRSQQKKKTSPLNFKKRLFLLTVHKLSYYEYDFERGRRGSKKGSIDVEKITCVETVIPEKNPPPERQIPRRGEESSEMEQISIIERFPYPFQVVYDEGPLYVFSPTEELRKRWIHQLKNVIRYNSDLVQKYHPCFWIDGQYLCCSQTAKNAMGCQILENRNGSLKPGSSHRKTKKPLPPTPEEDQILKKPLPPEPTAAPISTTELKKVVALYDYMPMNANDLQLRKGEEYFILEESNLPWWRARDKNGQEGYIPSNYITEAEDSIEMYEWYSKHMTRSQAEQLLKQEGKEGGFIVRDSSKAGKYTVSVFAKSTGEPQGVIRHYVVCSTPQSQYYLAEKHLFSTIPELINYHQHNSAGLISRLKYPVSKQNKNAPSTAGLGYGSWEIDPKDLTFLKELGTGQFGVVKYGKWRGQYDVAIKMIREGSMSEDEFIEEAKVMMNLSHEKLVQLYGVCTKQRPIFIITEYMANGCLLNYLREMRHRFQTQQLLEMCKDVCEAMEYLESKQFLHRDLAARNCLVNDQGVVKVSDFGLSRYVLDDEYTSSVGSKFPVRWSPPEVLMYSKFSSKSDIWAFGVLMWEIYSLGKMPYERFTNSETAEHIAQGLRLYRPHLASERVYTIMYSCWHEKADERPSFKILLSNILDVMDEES

`CN1CCN([C@@H]2CCCN(c3cnc(C(N)=O)c(Nc4ccc(C5CCN(C[C@H]6CCCN(c7ccc8c(c7)C(=O)N(C7CCC(=O)NC7=O)C8=O)C6)CC5)cc4)n3)C2)C1=O` (stereo partly drawn) [Compound 50]: under setting [1], the “% BTK Remaining” value is listed as 9%.
On to `CN1CCN([C@@H]2CCCN(c3cnc(C(N)=O)c(Nc4ccc(C5CCN(CC6CN(c7ccc8c(=O)n(C9CCC(=O)NC9=O)ccc8c7)C6)CC5)cc4)n3)C2)C1=O` (stereo partly drawn) [Compound 116], for which the “% BTK Remaining” value under setting [2] is reported as 39%.
The same measure, in the same setting: next, `Cn1c(-c2ccc(N3CCC(CN4CCC(c5ccc(Nc6nc(N7CCC[C@H](N8CCCC8=O)C7)cnc6C(N)=O)cc5)CC4)CC3)cc2)nn(C2CCC(=O)NC2=O)c1=O` (stereo partly drawn) [Compound 143]: 37%; `NC(=O)c1ncc(N2CCC[C@H](N3CCCC3=O)C2)nc1Nc1ccc(C2CCN(CC3CCN(c4ccc5c(=O)n(C6CCC(=O)NC6=O)ccc5c4)CC3)CC2)cc1` (stereo partly drawn) [Compound 144]: 29%.
For `CS(=O)(=O)c1ccc(Nc2nc(N3CCC[C@@H](NC(=O)OCC4CCN(c5ccc6c(c5)C(=O)N([C@H]5CCC(=O)NC5=O)C6=O)CC4)C3)cnc2C(N)=O)cc1` [Compound 218], the “% BTK Remaining” value under setting [3] was 97%.
Take `CN1CCN([C@@H]2CCCN(c3cnc(C(N)=O)c(Nc4ccc(C5CN(CC6CCN(c7cnn(C8CCC(=O)NC8=O)c(=O)c7)CC6)C5)cc4)n3)C2)C1=O` (stereo partly drawn) [Compound 118]: the “% BTK Remaining” value under setting [4] is 85%.
Turning to `CN1CCN([C@@H]2CCCN(c3cnc(C(N)=O)c(Nc4ccc(N5CC6CN(Cc7ccc8c(c7)C(=O)N(C7CCC(=O)NC7=O)C8=O)CC6C5)cc4)n3)C2)C1=O` (stereo partly drawn) [Compound 76], the “% BTK Remaining” value under setting [3] is reported as 100%.
For `CN1CCN([C@@H]2CCCN(c3cnc(C(N)=O)c(Nc4ccc(C5CCN(C[C@H]6C[C@H](Nc7cccc8c7C(=O)N([C@@H]7CCC(=O)NC7=O)C8=O)C6)CC5)cc4)n3)C2)C1=O` [Compound 202], the “% BTK Remaining” value under setting [2] worked out at 79%.
For the molecule `CN1CCN([C@@H]2CCCN(c3cnc(C(N)=O)c(Nc4ccc(C5CN(C[C@H]6CCN(c7ccc8c(c7)C(=O)N(C7CCC(=O)NC7=O)C8=O)C6)C5)cc4)n3)C2)C1=O` (stereo partly drawn) [Compound 35], the “% BTK Remaining” value under setting [3] is recorded as 74%.
Take `CN1CCN([C@@H]2CCCN(c3cnc(C(N)=O)c(Nc4cc5n(n4)CCN(C[C@H]4CCN(c6ccc7c(c6)C(=O)N(C6CCC(=O)NC6=O)C7=O)C4)C5)c3)C2)C1=O` (stereo partly drawn) [Compound 214]: the “% BTK Remaining” value under setting [5] is 100%.
For `CN1CCN([C@@H]2CCCN(c3cnc(C(N)=O)c(Nc4ccc(N5CCN(C[C@@H]6CCCN(c7ccc8c(c7)C(=O)N(C7CCC(=O)NC7=O)C8=O)C6)CC5)cc4)n3)C2)C1=O` (stereo partly drawn) [Compound 46], the “% BTK Remaining” value under setting [1] was found to be 14%.
Consider `CN1CCN([C@H]2CCCN(c3cnc(C(N)=O)c(Nc4ccc(N5CC6CN(c7ccc8c(c7)C(=O)N(C7CCC(=O)NC7=O)C8=O)CC6C5)cc4)n3)C2)C1=O` (stereo partly drawn) [Compound 79], for which, under setting [3], the “% BTK Remaining” value stood at 102%.
The same measure, in the same setting: next, `CN1CCN([C@H]2CCCN(c3cnc(C(N)=O)c(Nc4ccc(N5CCC6(CCCN(Cc7ccc8c(c7)C(=O)N(C7CCC(=O)NC7=O)C8=O)C6)CC5)cc4)n3)C2)C1=O` (stereo partly drawn) [Compound 108]: 116%.
Consider `CN1CCN([C@@H]2CCCN(c3cnc(C(N)=O)c(Nc4ccc(C5CCN(C[C@H]6CCN(c7ccc8c(c7)CN(C7CCC(=O)NC7=O)C8=O)C6)CC5)cc4)n3)C2)C1=O` (stereo partly drawn) [Compound 117], for which the “% BTK Remaining” value under setting [2] is 49%.
Regarding `CN1CCN([C@@H]2CCCN(c3cnc(C(N)=O)c(Nc4ccc(N5CCN(C[C@H]6CCCN(c7ccc8c(c7)C(=O)N(C7CCC(=O)NC7=O)C8=O)C6)CC5)cc4)n3)C2)C1=O` (stereo partly drawn) [Compound 48], the “% BTK Remaining” value under setting [1] stood at 7%.
Turning to `NC(=O)c1ncc(N2CCC3(COC3)C2)nc1Nc1ccc(C2CCN(C[C@H]3CCN(c4ccc5c(c4)C(=O)N(C4CCC(=O)NC4=O)C5=O)C3)CC2)cc1` (stereo partly drawn) [Compound 176], under setting [4], the “% BTK Remaining” value is recorded as 48%.
Consider `CN1CCN([C@@H]2CCCN(c3cnc(C(N)=O)c(Nc4ccc(C5CCN(C[C@@H]6[C@H]7CN(c8ccc9c(c8)C(=O)N(C8CCC(=O)NC8=O)C9=O)C[C@@H]67)CC5)cc4)n3)C2)C1=O` (stereo partly drawn) [Compound 39], for which, under setting [3], the “% BTK Remaining” value is given as 79%.
Turning to `Cn1cc(Nc2nc(N3CCC[C@@H](N4CC5(CN(CC6CN(c7ccc8c(c7)C(=O)N(C7CCC(=O)NC7=O)C8=O)C6)C5)OC4=O)C3)cnc2C(N)=O)cn1` (stereo partly drawn) [compound 213, 5-((3R)-3-(2-((1-(2-(2,6-dioxopiperidin-3-yl)-1,3-dioxoisoindolin-5-yl)azetidin-3-yl)methyl)-6-oxo-5-oxa-2,7-diazaspiro[3.4]octan-7-yl)piperidin-1-yl)-3-((1-methyl-1H-pyrazol-4-yl)amino)pyrazine-2-carboxamide], the “% BTK Remaining” value under setting [5] worked out at 97%.
On to `CN1CCN([C@@H]2CCCN(c3cnc(C(N)=O)c(Nc4ccc(N5CCC6CCN(c7cccc8c7C(=O)N(C7CCC(=O)NC7=O)C8=O)CC6C5)cc4)n3)C2)C1=O` (stereo partly drawn) [Compound 105], for which the “% BTK Remaining” value under setting [3] was 85%.
Regarding `O=C1CC[C@H](N2C(=O)c3ccc(N4CC[C@H](CN5CCC(c6ccc(Nc7nc(-c8nccs8)cn8ccnc78)cc6)CC5)C4)cc3C2=O)C(=O)N1` [Compound 203], the “% BTK Remaining” value under setting [2] amounted to 95%.
As for `NC(=O)c1ncc(N2CCCCC2)nc1Nc1ccc(C2CCN(CC3CCN(c4ccc(OC5CCC(=O)NC5=O)cn4)CC3)CC2)cc1` (stereo not drawn) [Compound 164], the “% BTK Remaining” value under setting [4] turned out to be 29%.
Consider `CN1CCN([C@@H]2CCCN(c3cnc(C(N)=O)c(Nc4ccc(C5CCN(CCC6CN(c7ccc8c(c7)C(=O)N(C7CCC(=O)NC7=O)C8=O)C6)CC5)cc4)n3)C2)C1=O` (stereo partly drawn) [Compound 45], for which the “% BTK Remaining” value under setting [1] is 8%.
As to `CN1CCN([C@@H]2CCCN(c3cnc(C(N)=O)c(Nc4ccc(N5CCN(C[C@H]6CCN(c7ccc8c(c7)C(=O)N(C7CCC(=O)NC7=O)C8=O)C6)CC5)nc4)n3)C2)C1=O` (stereo partly drawn) [Compound 113], the “% BTK Remaining” value reads like this: under setting [3], 70%; (oral dose 30 mg/kg, 24 h, blood, analysis method not given) 59%; under setting [4], 52%.
`Cn1c(=O)n([C@@H]2CCC(=O)NC2=O)c2ccc(N3CC[C@H](CN4CCC(c5ccc(Nc6nc(N7CCCCC7)cnc6C(N)=O)cc5)CC4)C3)cc21` [Compound 196]: the “% BTK Remaining” value under setting [2] is reported as 33%.
Turning to `CN1CCN([C@@H]2CCCN(c3cnc(C(N)=O)c(Nc4ccc(C5CCN(C[C@@H]6CCN(c7ccc8c(c7)C(=O)N(C7CCC(=O)NC7=O)C8=O)C6)CC5)cc4)n3)C2)C1=O` (stereo partly drawn) [Compound 52], the “% BTK Remaining” value under setting [1] is 2%.
In the case of `CN1CCN([C@@H]2CCCN(c3cnc(C(N)=O)c(Nc4cnc(N5CCN(C[C@H]6CCN(c7ccc8c(c7)C(=O)N([C@@H]7CCC(=O)NC7=O)C8=O)C6)CC5)nc4)n3)C2)C1=O` [Compound 204], the “% BTK Remaining” value under setting [4] is given as 87%.
Consider `CN1CCN([C@@H]2CCCN(c3cnc(C(N)=O)c(Nc4ccc(C5CCN(C[C@@H]6CCCN(c7ccc8c(c7)C(=O)N(C7CCC(=O)NC7=O)C8=O)C6)CC5)cc4)n3)C2)C1=O` (stereo partly drawn) [Compound 32, 3-((4-(1-(((3S)-1-(2-(2,6-dioxopiperidin-3-yl)-1,3-dioxoisoindolin-5-yl)piperidin-3-yl)methyl)piperidin-4-yl)phenyl)amino)-5-((R)-3-(3-methyl-2-oxoimidazolidin-1-yl)piperidin-1-yl)pyrazine-2-carboxamide], for which the “% BTK Remaining” value under setting [3] stood at 93%.
Take `CN1CCN([C@H]2CCCN(c3cnc(C(N)=O)c(Nc4ccc(C5CCN(C[C@@H]6CCN(c7ccc(-c8nn(C9CCC(=O)NC9=O)c(=O)n8C)cc7)C6)CC5)cc4)n3)C2)C1=O` (stereo partly drawn) [Compound 142]: the “% BTK Remaining” value under setting [2] was 43%.
`NC(=O)c1ncc(N2CCCC(N3CCCC3=O)C2)nc1Nc1ccc(C2CCN(C[C@@H]3CCN(c4ccc5c(c4)C(=O)N(C4CCC(=O)NC4=O)C5=O)C3)CC2)cc1` (stereo partly drawn) [Compound 146]: the “% BTK Remaining” value under setting [2] came to 37%.
Still for that read-out and setting: next, `CN1CCN([C@@H]2CCCN(c3cnc(C(N)=O)c(Nc4ccc(C5CCN(C[C@@H]6CCN(c7ccc8c(c7)n(C)c(=O)n8[C@@H]7CCC(=O)NC7=O)C6)CC5)cc4)n3)C2)C1=O` [Compound 199]: 20%; `CN1CCN([C@@H]2CCCN(c3cnc(C(N)=O)c(Nc4ccc(C5CCN(C[C@H]6CCN(c7ccc8c(c7)n(C)c(=O)n8[C@@H]7CCC(=O)NC7=O)C6)CC5)cc4)n3)C2)C1=O` [Compound 198]: 25%.
On to `CN1CCN([C@@H]2CCCN(c3cnc(C(N)=O)c(Nc4ccc(C5CCN(CC6CCN(c7cnn(C8CCC(=O)NC8=O)c(=O)c7)CC6)CC5)cc4)n3)C2)C1=O` (stereo partly drawn) [Compound 120], for which, under setting [4], the “% BTK Remaining” value is given as 59%.
For the molecule `Cn1c(=O)n([C@@H]2CCC(=O)NC2=O)c2ccc(N3CC[C@@H](CN4CCC(c5ccc(Nc6nc(N7CCCCC7)cnc6C(N)=O)cc5)CC4)C3)cc21` [Compound 197], under setting [2], the “% BTK Remaining” value came to 13%.
Take `CN1CCN([C@@H]2CCCN(c3cnc(C(N)=O)c(Nc4ccc(C5CCN(CCC6CCN(c7ccc8c(c7)C(=O)N(C7CCC(=O)NC7=O)C8=O)CC6)CC5)cc4)n3)C2)C1=O` (stereo partly drawn) [Compound 41]: the “% BTK Remaining” value under setting [1] worked out at 15%.

Values taken from patent publication US12600732B2, “Bifunctional compounds for degrading BTK via ubiquitin proteosome pathway” (NURIX THERAPEUTICS, INC., priority 2019, dated 2026).
